Assay [1] deals with T1, Bcl-2 (Homo sapiens (Human), UniProt P10415). Put plainly: Bcl-2 protein family binding assay (Bcl2scan platform), Bcl-2. The conditions noted are these: BIM peptide ligand, 11-point dilution, read-out: Bc1-2 Kd (nm).
Assay [2] addresses T2, Bcl-XL (Homo sapiens (Human), UniProt Q07817). Put plainly: Bcl-2 protein family binding assay (Bcl2scan platform), Bcl-XL. The conditions noted are these: BIM peptide ligand, 11-point dilution, read-out: Bc1-XL Kd (nm).
Assay [3] concerns the target T1, Bcl-2. Put plainly: Bcl-2 HTRF assay (FAM-Bak peptide). Type of assay: binding. The note with it: read-out: Bc1-2 IC50.
Assay [4] addresses T2, Bcl-XL. Put plainly: Bcl-XL HTRF assay (FAM-Bad peptide). It counts as binding. The conditions noted are these: read-out: Bc1-XL IC50. A general note: In TR-FRET formats the signal depends on donor and acceptor labels being close together.
The next assay concerns RS4;11 cells. Kind of assay: RS4;11 cell proliferation assay (CellTiter-Glo). It counts as cell-based. The note with it: Homo sapiens, RS4-11, 48 h, read-out: RS4;11 (nM), CTG IC50. On the technique in general: ATP-based viability assays read luminescence as a measure of living cells.
Another assay relates to NCI-H1963 cells. Put plainly: NCI-H1963 cell proliferation assay (CellTiter-Glo). Type of assay: cell-based. The note with it: Homo sapiens, NCI-H1963, 72 h, read-out: H1963 (nM), CTG IC50. On the procedure: Cell proliferation was measured using the CellTiter-Glo® Luminescent Cell Viability Assay. The assay involved the addition of a single reagent (CellTiter-Glo® Reagent) directly to cells cultured in serum-supplemented medium.
Each compound evaluated was prepared as a DMSO stock solution (10 mM). Compounds were tested in duplicate on each plate, with a 10-point serial dilution curve (1:3 dilution). Compound treatment (1.0 μL) was added from the compound dilution plate to the cell plate. The highest compound concentration was 10 μM (final), with a 0.1% final DMSO concentration. Plates were then incubated at 37° C., 5% CO2. After 48 h of compound treatment for RS4;11 or 72 h for NCI-H1963, cell plates were equilibrated at rt for approximately 30 mins. An equi-volume amount of CellTiter-Glo® Reagent (40 μL) was added to each well. […] Luminescence was recorded using a Envision plate reader according to CellTiter-Glo protocol. IC50 of each compound was calculated using GraphPad Prism by nonlinear regression analysis.

The mark [5] stands for this setting: HTRF, 4 nM Bcl-2, 100 nM FAM-Bak peptide.
[6] abbreviates: HTRF, 3 nM Bcl-XL, 40 nM FAM-Bad peptide.

Experimental findings from US11318134B2, “Benzamide compounds” (priority 2018, dated 2022) are described below.

Read-outs that look alike come from different tables or passages of the source.

T1 sequence (P10415 whole entry): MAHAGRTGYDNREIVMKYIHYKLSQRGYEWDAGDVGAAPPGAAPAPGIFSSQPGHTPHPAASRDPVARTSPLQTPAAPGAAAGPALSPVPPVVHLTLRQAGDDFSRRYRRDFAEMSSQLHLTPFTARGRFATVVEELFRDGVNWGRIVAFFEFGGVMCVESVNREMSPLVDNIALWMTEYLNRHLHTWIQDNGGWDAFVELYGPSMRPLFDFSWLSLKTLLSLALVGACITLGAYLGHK
T2 sequence (Q07817 whole entry): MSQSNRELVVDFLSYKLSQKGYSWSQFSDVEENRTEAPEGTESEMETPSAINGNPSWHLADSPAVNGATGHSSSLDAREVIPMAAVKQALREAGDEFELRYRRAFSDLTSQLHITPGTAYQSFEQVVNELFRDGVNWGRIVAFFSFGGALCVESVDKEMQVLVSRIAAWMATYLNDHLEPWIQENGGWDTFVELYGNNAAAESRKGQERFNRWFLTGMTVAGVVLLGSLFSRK

As to `CC1(C)CCC(CN2CCN(c3ccc(C(=O)NS(=O)(=O)c4ccc(NC[C@H]5CC[C@](C)(O)CC5)c([N+](=O)[O-])c4)c(Oc4cnc5[nH]ccc5c4)c3)CC2)=C(C23CC(C(F)F)(C2)C3)C1` [Example 34, 2-((1H-pyrrolo[2,3-b]pyridin-5-yl)oxy)-4-(4-((2-(3-(difluoromethyl)bicyclo[1.1.1]pentan-1l-yl)-4,4-dimethylcyclohex-1-en-1-yl)methyl)piperazin-1-yl)-N-((4-((((1r,4r)-4-hydroxy-4-methylcyclohexyl)methyl)amino)-3-nitrophenyl)sulfonyl)benzamide], the Kd – broadly, the concentration at which binding is half-saturated – on Bcl-2 [1] was less than 10 nM; at Bcl-XL [2] it was more than 100 nM. Besides, the IC50 on Bcl-2 [3] (setting [5]) was not above 10 nM; on Bcl-XL [4] (setting [6]), 10 to 100 nM; in the assay with RS4;11 cells, less than 100 nM.
For the molecule `CC1(C)CCC(CN2CCN(c3ccc(C(=O)NS(=O)(=O)c4ccc(N[C@H](CCN5CCC(O)CC5)CSc5ccccc5)c(S(=O)(=O)C(F)(F)F)c4)cc3)CC2)=C(C23CC(C(F)F)(C2)C3)C1` [Example 61, (R)-4-(4-((2-(3-(Difluoromethyl)bicyclo[1.1.1]pentan-1-yl)-4,4-dimethylcyclohex-1-en-1-yl)methyl)piperazin-1-yl)-N-((4-((4-(4-hydroxypiperidin-1-yl)-1-(phenylthio)butan-2-yl)amino)-3-((trifluoromethyl)sulfonyl)phenyl)sulfonyl)benzamide], the IC50 at Bcl-2 [3] (setting [5]) was not above 10 nM; on Bcl-XL [4] (setting [6]), not above 10 nM; in the assay with RS4;11 cells, less than 100 nM; in the assay with NCI-H1963 cells it was less than 500 nM.
As for `CN(C)C1CCN(CC[C@H](CSc2ccccc2)Nc2ccc(S(=O)(=O)NC(=O)c3ccc(N4CCN(CC5=C(C67CC(C(F)F)(C6)C7)CC(C)(C)CC5)CC4)cc3)cc2S(=O)(=O)C(F)(F)F)CC1` [Example 62, (R)-4-(4-((2-(3-(Difluoromethyl)bicyclo[1.1.1]pentan-1-yl)-4,4-dimethylcyclohex-1-en-1-yl)methyl)piperazin-1-yl)-N-((4-((4-(4-(dimethylamino)piperidin-1-yl)-1-(phenylthio)butan-2-yl)amino)-3-((trifluoromethyl)sulfonyl)phenyl)sulfonyl)benzamide], the IC50 was not above 10 nM at Bcl-2 [3] (setting [5]), not above 10 nM at Bcl-XL [4] (setting [6]), 100 to 1000 nM in the assay on RS4;11 cells and less than 500 nM with NCI-H1963 cells.
As for `CN(C)CC[C@H](CSc1ccccc1)Nc1ccc(S(=O)(=O)NC(=O)c2ccc(N3CCN(CC4=C(C56CC(C)(C5)C6)CC(C)(C)CC4)CC3)cc2)cc1S(=O)(=O)C(F)(F)F` [Example 59, (R)-4-(4-((4,4-dimethyl-2-(3-methylbicyclo[1.1.1]pentan-1-yl)cyclohex-1-en-1-yl)methyl)piperazin-1-yl)-N-((4-((4-(dimethylamino)-1-(phenylthio)butan-2-yl)amino)-3-((trifluoromethyl)sulfonyl)phenyl)sulfonyl)benzamide], the IC50 at Bcl-2 [3] (setting [5]) is not above 10 nM; at Bcl-XL [4] (setting [6]), not above 10 nM; in the assay with RS4;11 cells, 100 to 1000 nM; in the assay with NCI-H1963 cells, 500 to 1000 nM.
For `CC1(C)CCC(CN2CCN(c3ccc(C(=O)NS(=O)(=O)c4ccc(N[C@H](CCN5CCNCC5)CSc5ccccc5)c(S(=O)(=O)C(F)(F)F)c4)cc3)CC2)=C(C23CC(C(F)F)(C2)C3)C1` [Example 64, (R)-4-(4-((2-(3-(difluoromethyl)bicyclo[1.1.1]pentan-1-yl)-4,4-dimethylcyclohex-1-en-1-yl)methyl)piperazin-1-yl)-N-((4-((1-(phenylthio)-4-(piperazin-1-yl)butan-2-yl)amino)-3-((trifluoromethyl)sulfonyl)phenyl)sulfonyl)benzamide], the IC50 is not above 10 nM at Bcl-2 [3] (setting [5]), not above 10 nM on Bcl-XL [4] (setting [6]), 100 to 1000 nM in the assay with RS4;11 cells and more than 1000 nM in the assay with NCI-H1963 cells.
As to `CCN(CCO)CC[C@H](CSc1ccccc1)Nc1ccc(S(=O)(=O)NC(=O)c2ccc(N3CCN(CC4=C(C56CC(C(F)F)(C5)C6)CC(C)(C)CC4)CC3)cc2)cc1S(=O)(=O)C(F)(F)F` [Example 70, (R)-4-(4-((2-(3-(difluoromethyl)bicyclo[1.1.1]pentan-1-yl)-4,4-dimethylcyclohex-1-en-1-yl)methyl)piperazin-1-yl)-N-((4-((4-(ethyl(2-hydroxyethyl)amino)-1-(phenylthio)butan-2-yl)amino)-3-((trifluoromethyl)sulfonyl)phenyl)sulfonyl)benzamide], the IC50 at Bcl-2 [3] (setting [5]) was not above 10 nM; on Bcl-XL [4] (setting [6]) it was not above 10 nM; in the assay with RS4;11 cells, 100 to 1000 nM; in the assay with NCI-H1963 cells, more than 1000 nM.
Regarding `CC1(C)CCC(CN2CCN(c3ccc(C(=O)NS(=O)(=O)c4ccc(NC[C@H]5CC[C@](C)(O)CC5)c([N+](=O)[O-])c4)c(Oc4cnc5[nH]ccc5c4)c3)CC2)=C(C23CC(C)(C2)C3)C1` [Example 20, 2-(1H-pyrrolo[2,3-b]pyridin-5-yloxy)-4-(4-((4,4-dimethyl-2-(3-methylbicyclo[1.1.1]pentan-1-yl)cyclohex-1-enyl)methyl)piperazin-1-yl)-N-(4-(((1r,4r)-4-hydroxy-4-methylcyclohexyl)methylamino)-3-nitrophenylsulfonyl)benzamide], the Kd is less than 10 nM at Bcl-2 [1] and more than 100 nM at Bcl-XL [2]. Moreover, the IC50 was not above 10 nM on Bcl-2 [3] (setting [5]), not below 100 nM at Bcl-XL [4] (setting [6]) and less than 100 nM in the assay with RS4;11 cells.
For the molecule `CC1(C)CCC(CN2CCN(c3ccc(C(=O)NS(=O)(=O)c4ccc(N[C@H](CCN5CCN(CCO)CC5)CSc5ccccc5)c(S(=O)(=O)C(F)(F)F)c4)cc3)CC2)=C(C23CC(C(F)F)(C2)C3)C1` [Example 69, (R)-4-(4-((2-(3-(difluoromethyl)bicyclo[1.1.1]pentan-1-yl)-4,4-dimethylcyclohex-1-en-1-yl)methyl)piperazin-1-yl)-N-((4-((4-(4-(2-hydroxyethyl)piperazin-1-yl)-1-(phenylthio)butan-2-yl)amino)-3-((trifluoromethyl)sulfonyl)phenyl)sulfonyl)benzamide], the IC50 at Bcl-2 [3] (setting [5]) is not above 10 nM; at Bcl-XL [4] (setting [6]) it was not above 10 nM; with NCI-H1963 cells, 500 to 1000 nM.
Turning to `CC1(C)CCC(C23CC(C)(C2)C3)=C(CN2CCN(c3ccc(C(=O)NS(=O)(=O)c4ccc(N[C@H](CCN5CCC(O)CC5)CSc5ccccc5)c(S(=O)(=O)C(F)(F)F)c4)cc3)CC2)C1` [Example 48, (R)-4-(4-((5,5-dimethyl-2-(3-methylbicyclo[1.1.1]pentan-1-yl)cyclohex-1-enyl)methyl)piperazin-1-yl)-N-(4-(4-(4-hydroxypiperidin-1-yl)-1-(phenylthio)butan-2-ylamino)-3-(trifluoromethylsulfonyl)phenylsulfonyl)benzamide], the Kd on Bcl-2 [1] and on Bcl-XL [2] was 10 to 100 nM in each case. Also, the figures for the IC50 on Bcl-2 [3], on Bcl-XL [4] and in the assay with RS4;11 cells were less than 10 nM, less than 10 nM and 100 to 1000 nM, respectively.
For the molecule `CN(C)CC[C@H](CSc1ccccc1)Nc1ccc(S(=O)(=O)NC(=O)c2ccc(N3CCN(CC4=C(C56CC(C(F)F)(C5)C6)CC(C)(C)CC4)CC3)cc2)cc1S(=O)(=O)C(F)(F)F` [Example 63, (R)-4-(4-((2-(3-(Difluoromethyl)bicyclo[1.1.1]pentan-1-yl)-4,4-dimethylcyclohex-1-en-1-yl)methyl)piperazin-1-yl)-N-((4-((4-(dimethylamino)-1-(phenylthio)butan-2-yl)amino)-3-((trifluoromethyl)sulfonyl)phenyl)sulfonyl)benzamide], the IC50 on Bcl-2 [3] (setting [5]) is not above 10 nM; on Bcl-XL [4] (setting [6]), not above 10 nM; with RS4;11 cells, less than 100 nM; with NCI-H1963 cells it was less than 500 nM.
Turning to `CN(CCO)CC[C@H](CSc1ccccc1)Nc1ccc(S(=O)(=O)NC(=O)c2ccc(N3CCN(CC4=C(C56CC(C(F)F)(C5)C6)CC(C)(C)CC4)CC3)cc2)cc1S(=O)(=O)C(F)(F)F` [Example 60, (R)-4-(4-((2-(3-(difluoromethyl)bicyclo[1.1.1]pentan-1-yl)-4,4-dimethylcyclohex-1-en-1-yl)methyl)piperazin-1-yl)-N-((4-((4-((2-hydroxyethyl)(methyl)amino)-1-(phenylthio)butan-2-yl)amino)-3-((trifluoromethyl)sulfonyl)phenyl)sulfonyl)benzamide], the IC50 is not above 10 nM on Bcl-2 [3] (setting [5]), not above 10 nM on Bcl-XL [4] (setting [6]), less than 100 nM in the assay with RS4;11 cells and 500 to 1000 nM in the assay with NCI-H1963 cells.
